PMC6125496 (Antimicrobial Agents and Chemotherapy, 2018)
≈ marks a conversion by molar mass, not a printed value. Like-named read-outs stand apart in the source and are kept apart here. Non-standard residues stand in square brackets, D forms with d. Residues, ends and D or L forms follow the SMILES beside them. Dab(3S-OH) = NC[C@H](O)[C@H](N)C(=O)O; Phe(2-F) = N[C@@H](Cc1ccccc1F)C(=O)O; ΔZArg = N=C(N)NCC/C=C(\N)C(=O)O; dOrn = NCCC[C@@H](N)C(=O)O; Dab = NCC[C@H](N)C(=O)O

Columns and labels:
[1] = tested on: Escherichia coli, colistin-resistant (25)
Description: (§1) Reference strains are from the German Collection of Microorganisms and Cell Cultures (DSMZ), the American Type Culture Collection (ATCC), the National Collection of Type Cultures (NCTC), and the Medical and Molecular Microbiology, Faculty of Science and Medicine, University of Fribourg, Switzerland.

[2] = tested on: Gentamicin-resistant E. coli (6); conditions: 6 gentamicin-resistant isolates
Description: as §1

[3] = tested on: Klebsiella pneumoniae, colistin resistant (46)
Description: as §1

in vitro [4] = conditions: liver microsomes, pH 7.4
Method: The microsome metabolic stability assays were performed by Cyprotex Discovery Ltd. (Macclesfield, UK). Pooled microsomes from different species (mouse, rat, dog, monkey, and human) were stored at −80°C prior to use. […] The final incubation volume was 500 μl. A minus cofactor control incubation was included for each compound tested, in which 0.1 M phosphate buffer (pH 7.4) was added instead of NADPH (minus NADPH). Two control compounds were included with each species. Each compound was incubated for 0, 5, 15, 30, and 45 min. The control (minus NADPH) was incubated for 45 min only. The reactions were stopped by transferring an aliquot of the mixture to 40% TCA in water containing an internal standard (NOSO-95216, 1 μM final concentration) for the test compounds, or methanol for the control compounds, at the desired time points. The termination plates were centrifuged at 2,500 rpm for 20 min at 4°C to precipitate the protein. Following protein precipitation, the test compound sample supernatants were diluted with analytical-grade water, whereas the control compounds were diluted with an internal standard (metoprolol) in water. The test compound samples were analyzed by LC-MS/MS.

in vitro [5] = conditions: cryopreserved pooled hepatocytes
Method: The hepatocyte metabolic stability assays were performed by Cyprotex Discovery Ltd. (Macclesfield, UK). This assay utilizes cryopreserved pooled hepatocytes from different species (mouse, rat, dog, monkey, and human), stored in liquid nitrogen prior to use. […] The final incubation volume was 500 μl. Two control compounds were included with each species alongside an appropriate vehicle control. […] The termination plates were centrifuged at 2,500 rpm at 4°C for 30 min to precipitate the protein. Following protein precipitation, the test compound sample supernatants were diluted with analytical-grade water, whereas the control compounds were diluted with an internal standard (metoprolol) in water. The test compound samples were analyzed by liquid chromatography-tandem mass spectrometry (LC-MS/MS).

E. coli EN122 = conditions: ESBL, clinical isolate
Method: MIC values were determined using Clinical and Laboratory Standards Institute (CLSI) broth microdilution methodology, colony direct suspension, as described in CLSI document M07-A10 ([42]).

[6] = tested on: Enterobacter cloacae 3047; conditions: Ambler class B carbapenemase; NDM-1 + CTX-M15 + TEM-1 + OXA-1
Description: as §1

Enterobacter cloacae BEU = conditions: Ambler class D carbapenemase; OXA-48 + CTX-M15 + SHV-12 + TEM-1 + OXA-1 + DHA-1
Description: as §1

[7] = tested on: Enterobacter cloacae KBM15; conditions: Ambler class A carbapenemase; KPC-2 + TEM-1 + OXA-9
Description: as §1

Enterobacter cloacae YAM = conditions: Ambler class D carbapenemase; OXA-48 + CTX-M15 + TEM-1 + OXA-1 + DHA-1
Description: as §1

Escherichia coli COL = conditions: Ambler class A carbapenemase; KPC-2 + TEM-1 + CTX-M9
Description: as §1

Escherichia coli DOV = conditions: Ambler class D carbapenemase; OXA-48 + TEM-1 + CTX-M15 + OXA-1
Description: as §1

Escherichia coli EGB957 = conditions: Ambler class B carbapenemase; VIM-1 + OXA-48 + TEM-1 + CMY-4 + OXA-1
Description: as §1

Escherichia coli GAL = conditions: Ambler class B carbapenemase; NDM-6 + OXA-1 + CTX-M15
Description: as §1

Escherichia coli MON = conditions: Ambler class B carbapenemase; NDM-5 + CTX-M15 + TEM-1
Description: as §1

Escherichia coli PSP = conditions: Ambler class A carbapenemase; KPC-2 + TEM-1 + OXA-1
Description: as §1

[8] = tested on: Klebsiella pneumoniae A33504; conditions: Ambler class A carbapenemase; KPC-2+ SHV-11 + TEM-1 + CTX-M-2 + OXA-9
Description: as §1

[9] = tested on: Klebsiella pneumoniae ATCC BAA-2146; conditions: Ambler class B carbapenemase; NDM-1 + CTX-M15 + TEM-1 + CMY-6 + OXA-1 + SHV-1
Description: as §1

[10] = tested on: Klebsiella pneumoniae LAM; conditions: Ambler class B carbapenemase; NDM-4 + SHV-11 + CTX-M15
Description: as §1

N=C(N)NCC/C=C(\NC(=O)[C@H](CCCCN)NC(=O)[C@H](Cc1ccccc1F)NC(=O)[C@@H]1CCCN1C(=O)[C@@H](CCCN)NC(=O)CNC(=O)[C@H](CCN)NC(=O)[C@@H](NC(=O)[C@@H](N)CCCCN)[C@@H](O)CN)C(=O)O [NOSO-502] (H-K[Dab(3S-OH)][Dab]G[dOrn]P[Phe(2-F)]K[ΔZArg]-OH)
MIC range ([1]; Unknown mechanism (2 isolates)): 1 to 2 µg/mL | MIC range ([1]; mcr-1 (21 isolates)): 1 to 4 µg/mL | MIC range ([1]; mcr-2 (1 isolate)): 1 µg/mL (≈ 0.927 µM) | MIC range ([1]; mcr-3 (1 isolate)): 1 µg/mL (≈ 0.927 µM) | MIC range [2]: 4 µg/mL (≈ 3.71 µM) | MIC range ([3]; Unknown mechanism (1)): 0.5 µg/mL (≈ 0.464 µM) | MIC range ([3]; crrB F84S substitution (1)): 8 µg/mL (≈ 7.42 µM) | MIC range ([3]; crrB G183V substitution (1)): 64 µg/mL (≈ 59.4 µM) | MIC range ([3]; crrB N141Y substitution (1)): 16 µg/mL (≈ 14.8 µM) | MIC range ([3]; crrB P151L substitution (1)): 128 µg/mL (≈ 119 µM) | MIC range ([3]; mcr-1 (1)): 0.5 µg/mL (≈ 0.464 µM) | MIC range ([3]; mgrB IS1R between +44 and +45 (2)): 1 µg/mL (≈ 0.927 µM) | MIC range ([3]; mgrB IS1R into promoter between −45 and −46 (3)): 0.5 to 1 µg/mL | MIC range ([3]; mgrB IS5 between +74 and +75 (4)): 0.5 to 2 µg/mL | MIC range ([3]; mgrB IS903B between +69 and +70 (2)): 0.25 to 1 µg/mL | MIC range ([3]; mgrB ISKpn14 into promoter between −28 and −29 (2)): 0.5 to 2 µg/mL | MIC range ([3]; mgrB ISKpn26-like between +74 and +75 (2)): 1 µg/mL (≈ 0.927 µM) | MIC range ([3]; mgrB M27K substitution (1)): 2 µg/mL (≈ 1.85 µM) | MIC range ([3]; mgrB N42Y and K43I substitutions (1)): 2 µg/mL (≈ 1.85 µM) | MIC range ([3]; mgrB W20R substitution (1)): 0.5 µg/mL (≈ 0.464 µM) | MIC range ([3]; mgrB W47R substitution (1)): 1 µg/mL (≈ 0.927 µM) | MIC range ([3]; mgrB full deletion (5)): 0.5 to 1 µg/mL | MIC range ([3]; mgrB premature termination (6)): 0.5 to 1 µg/mL | MIC range ([3]; phoQ R16C substitution (1)): 2 µg/mL (≈ 1.85 µM) | MIC range ([3]; pmrA G53S substitution (2)): 1 to 2 µg/mL | MIC range ([3]; pmrB L17Q substitution (1)): 1 µg/mL (≈ 0.927 µM) | MIC range ([3]; pmrB T157P substitution (6)): 0.25 to 16 µg/mL | half-life at 1 μM (in vitro [4]; dog): 1.68 h | half-life at 1 μM (in vitro [4]; human): 2.42 h | half-life at 1 μM (in vitro [4]; monkey): 2.45 h | half-life at 1 μM (in vitro [4]; mouse): 1.93 h | half-life at 1 μM (in vitro [4]; rat): 2.15 h | half-life at 1 μM (in vitro [5]; dog): 8.05 h | half-life at 1 μM (in vitro [5]; monkey): 11.6 h | half-life at 1 μM (in vitro [5]; mouse): 3.2 h | half-life at 1 μM (in vitro [5]; rat): 3.23 h | MIC (E. coli EN122): 4 µg/mL (≈ 3.71 µM)

polymyxin B [PMB]
MIC [6]: 0.5 µg/mL | MIC (Enterobacter cloacae BEU): 16 µg/mL | MIC [7]: 0.5 µg/mL | MIC (Enterobacter cloacae YAM): 1 µg/mL | MIC (Escherichia coli COL): 0.5 µg/mL | MIC (Escherichia coli DOV): 0.5 µg/mL | MIC (Escherichia coli EGB957): 0.5 µg/mL | MIC (Escherichia coli GAL): 0.25 µg/mL | MIC (Escherichia coli MON): 0.5 µg/mL | MIC (Escherichia coli PSP): 0.5 µg/mL | MIC [8]: 0.5 µg/mL | MIC [9]: 1 µg/mL | MIC [10]: 0.5 µg/mL
